Source: US20210253518A1, “KINASE INHIBITOR” (NISSAN CHEMICAL CORPORATION, priority 2018, published 2021)

Tests used:
[1] = test system: mouse partial liver resection model; test: Liver weight increase in mouse partial liver resection model; assay type: in vivo; conditions: 10 mg/kg intraperitoneally 4 times every 24 hr, about 30% of the liver removed, FIG. 2
Method: A partial liver resection model in which the mouse liver was partially resected was prepared as described below, and the liver weight increasing effect of the specific compound was evaluated by comparing the liver weight immediately after the resection with the liver weight 3 days after the resection.
A 0.5 w/v % methylcellulose aqueous solution (0.5% MC, manufactured by FUJIFILM Wako Pure Chemical Corporation) and k-1:B-1, k-1:J-1 were evaluated. k-1:B-1 and k-1:J-1 were suspended in 0.5% MC, and prepared at a final concentration of 1 mg/mL.
Mice, BALB/cAnNCrlCrlj, 5-week-old, male, were purchased from Charles River Laboratories, Japan. In terms of the 0.5% MC administration control group, 0.5% MC 10 mL/kg was administered intraperitoneally once, and 24 hr later, the entire liver was isolated and the liver weight was measured (n=5). […] After that, the abdomen was closed, and 24 hr after the final administration, the entire liver was removed and the liver weight was measured (n=4). In terms of the k-1:B-1 or k-1:J-1 administration-control group, k-1:B-1 or k-1:J-1 10 mg/kg, 10 mL/kg, was intraperitoneally administered once, and 24 hr later, the entire liver was isolated and the liver weight was measured (n=5). […] After that, the abdomen was closed, and 24 hr after the final administration, the entire liver was removed and the liver weight was measured (n=5).

[2] = test system: YAP (phospho-S127 and total); test: YAP phosphorylation inhibitory action in SKOV3 cells (HTRF, YAP-total kit / YAP phospho-S127 kit); assay type: cell-based, human; conditions: 10 μM, 1 hr, Non-treatment as 100%
Method: Human ovarian cancer cell line SKOV3 (manufactured by DS Pharma Biomedical Co., Ltd) was precultured (single layer culture) in a 15% FBS-containing McCoy's 5a medium (manufactured by Sigma Ltd. Aldrich). The above-mentioned cells in the logarithmic growth phase were washed with PBS, a 0.25% (w/v) trypsin-1 mmol/L ethylenediaminetetraacetic acid (EDTA) solution (manufactured by Fujifilm Wako Pure Chemical Corporation) was added, and adherent cells were detached by incubating at 37° C. for 3 min. The above-mentioned medium was added and the mixture was centrifuged and resuspended in the same medium.
According to the method of patent document (WO 2014/017513), a composition of 10% FBS-containing DMEM medium (Phenol-red free, manufactured by FUJIFILM Wako Pure Chemical Corporation) containing 0.015% (w/v) deacylated gellan gum (KELCOGEL CG-LA, manufactured by SANSHO Co., Ltd.) was prepared using FCeM-series Preparation Kit (manufactured by FUJIFILM Wako Pure Chemical Corporation). Then, various cells prepared above were suspended in the above-mentioned medium composition (3D conditions) added with deacylated gellan gum or a medium without the addition (2D conditions), and seeded on a 50 μL/well (manufactured by Corning Incorporated, 96 well flat bottom plate, #3585, 2D conditions) or 25 μL/well (manufactured by Corning Incorporated, 96 well low adhesion flat bottom plate, #3474) at 100000 cells/well. The plate was allowed to stand at 37° C. in a 5% CO2 incubator, and the compound of the present invention diluted with the medium at 2 or 6 times the final concentration, DMSO, or the medium alone was added to the plate 3 hr after the seeding at 50 μL/well (2D conditions) or 5 μL/well (3D conditions) to make the final concentration of each compound 10 μM. After culture at 37° C. in a 5% CO2 incubator for 1 hr, the supernatant was aspirated, supplemented Lysis buffer (1-fold concentration, manufactured by Cisbio, YAP-total kit or YAP phospho-S127 kit) (50 μL) was added under 2D conditions, and supplemented Lysys buffer (4-fold concentration) (10 μL) was added to the culture supernatant under 3D conditions, and the mixture was stirred by a plate shaker for 30 min. Thereafter, the plate was centrifuged, 16 μL of the supernatant was transferred to a 384-well white plate (Corning, #4512), and each antibody solution (pYAP d2 antibody or Total-YAP d2 antibody, and pYAP Cryptate antibody or Total-YAP Cryptate antibody) included in the kit was added at 4 μL/well in total, and the mixture was allowed to stand at room temperature overnight. As a blank control, pYAP Cryptate antibody or Total-YAP Cryptate antibody alone was added to cells free of stimulation with compound and the mixture was treated in the same manner (Non-treatment). The next day, the wavelengths at 665 nm and 615 nm were measured in the HTRF mode of EnVision (manufactured by PerkinElmer).
The obtained signal was calculated as follows. Ratio=signal (665 nm)/signal (615 nm)×10000, ΔR=Signal(Ratio)−Background fluorescence, and the relative value with respect to ΔR of the compound non-addition group (Non-treatment) as 100% was calculated, and the phosphorylated YAP amount or total YAP amount by each compound was evaluated.

| Compound | liver weight ratio after partial liver resection [1] | phosphorylated YAP (%) ([2]; 2D condition) | total YAP (%) ([2]; 2D condition) | phosphorylated YAP (%) ([2]; 3D condition) | total YAP (%) ([2]; 3D condition) |
| --- | --- | --- | --- | --- | --- |
| CC/C(=N\NC(=O)NCc1cccc(O)c1)c1ccc(O)c(C)c1O [k-1:J-1] | promoting recovery of the liver weight after excision | 13 | 86 | 30 | 109 |
| CCC(=NNC(=O)CNc1ccccc1)c1ccc(O)c(C)c1O [k-1:H-1] | – | 38 | 94 | 80 | 107 |
| CC/C(=N\NC(=O)C(C)Nc1ccccc1)c1ccc(O)c(C)c1O (centres unmarked) [k-1:B-1] | promoting recovery of the liver weight after excision | 14 | 89 | 31 | 99 |
